Test results: article PMC12118597 (Science Advances, 2025)
Where two headings read alike, the source gives them in different places.

Tests used:
[1] = biological target: T1, SARS-CoV-2 NSP3 macrodomain (Mac1) (Severe acute respiratory syndrome coronavirus 2, UniProt P0DTD1); assay: biochemical; assay type: binding; conditions: for Average % competition: Single dose, concentration 200 μM; for IC50: dose-response, read-out: IC50
[2] = biological target: T1, SARS-CoV-2 NSP3 macrodomain (Mac1); assay type: binding; conditions: for Number of isomers bound: ligand modeling, Mac1 crystal soak; for Isomers modeled: stereoisomer(s) modeled as bound, residues 201/202/203
[3] = compound at 200 μM, mean of three to four technical replicates, read-out: % competition at 200 μM (preliminary HTRF screen)
[4] = SARS CoV-2 macrodomain HTRF assay, single dose concentration 200 μM, read-out: Average % competition
[5] = SARS CoV-2 macrodomain HTRF assay
[6] = crystal soak 10 mM, P43 crystal form
[7] = crystal soak 10 mM, DMSO background map

SMILES | Average % competition [1] [%] | inhibition at 200 µM [1, 3] [%] | Number of isomers bound [2] | Isomers modeled [2] | inhibition at 200 µM [1, 4] [%] | PanDDA run, TFA/DMSO background map: 1-BDC ([2]; crystal soak 10 mM) | PanDDA run, TFA/DMSO background map: Hit ([2]; crystal soak 10 mM) | other results
Cc1ccc(CC(CO)Nc2ncnc3[nH]ccc23)cc1 (stereo not drawn) [AVI-3683] | 14 | 14 | 2 | S,R | – | – | – | –
Cc1ccc(CC(CO)Nc2ncnc3[nH]ccc23)cc1C (stereo not drawn) [AVI-3684] | <10 | < 10 | 2 | R,S | – | – | – | –
OCC1CCCN1c1ncnc2[nH]ccc12 (stereo not drawn) [AVI-3685] | – | 48 | 1 | – | 47 | – | – | fold decrease in affinity relative to AVI-607 ([1]; HTRF): > 20 fold
OCC(Cc1ccc(I)cc1)Nc1ncnc2[nH]ccc12 (stereo not drawn) [AVI-3686] | <10 | < 10 | 2 | S,R | – | 0.19 | TRUE | –
O=C(O)C(F)(F)F.OCC1(Nc2ncnc3[nH]ccc23)CC1 [AVI-3688] | 72 | 72 | 1 | – | – | 0.17 | TRUE | –
OCC(CC1CCCCC1)Nc1ncnc2[nH]ccc12 (stereo not drawn) [AVI-3690] | 66 | 66 | 1 | – | – | – | – | –
OCC(CC1CCCC1)Nc1ncnc2[nH]ccc12 (stereo not drawn) [AVI-3691] | 52 | 53 | 1 | – | – | 0.1 | TRUE | –
O=C(O)C(F)(F)F.OCC1(Nc2ncnc3[nH]ccc23)CCCC1 [AVI-3692] | – | – | 1 | – | – | 0.11 | TRUE | Ki [1, 5]: 46 µM; Ligand efficiency (binding enery per heavy atom) [1, 5]: 0.35; IC50 [1, 5]: 49 µM
OCC(Nc1ncnc2[nH]ccc12)C1CCc2ccccc21 (stereo not drawn) [AVI-3693] | 78 | 78 | 2 | RR,SR | – | – | – | –
CCC(CC)(CO)Nc1ncnc2[nH]ccc12 [AVI-3695] | – | – | 1 | – | – | – | – | Ki [1, 5]: 37 µM; Ligand efficiency (binding enery per heavy atom) [1, 5]: 0.36; IC50 [1, 5]: 40 µM
OCC(Cc1ccccn1)Nc1ncnc2[nH]ccc12 (stereo not drawn) [AVI-3696] | 34 | 34 | 2 | R,S | – | – | – | –
CCC(C)(CO)Nc1ncnc2[nH]ccc12 (stereo not drawn) [AVI-3697] | – | – | 1 | – | – | – | – | Ki [1, 5]: 34 µM; Ligand efficiency (binding enery per heavy atom) [1, 5]: 0.39; IC50 [1, 5]: 36 µM
OCC(O)C1CCCN1c1ncnc2[nH]ccc12 (stereo not drawn) [AVI-3701] | – | 54 | 1 | – | 54 | 0.16 | TRUE | –
O=C(O)C(F)(F)F.OC[C@H]1CC2(CN1c1ncnc3[nH]ccc13)OCCO2 [AVI-3702] | – | 17 | 1 | – | 17 | 0.13 | TRUE | –
OCC(Cc1cncs1)Nc1ncnc2[nH]ccc12 (stereo not drawn) [AVI-3703] | 28 | 28 | 1 | – | – | 0.1 | TRUE | –
CC1(C)C[C@@H](CO)N(c2ncnc3[nH]ccc23)C1.O=C(O)C(F)(F)F [AVI-3704] | – | – | 1 | – | – | – | – | Ki [1, 5]: 27 µM; Ligand efficiency (binding enery per heavy atom) [1, 5]: 0.35; IC50 [1, 5]: 29 µM

SMILES | Average % competition [1] [%] | inhibition at 200 µM [1, 3] [%] | Number of isomers bound [2] | Isomers modeled [2] | inhibition at 200 µM [1, 4] [%] | PanDDA run, TFA/DMSO background map: 1-BDC ([2]; crystal soak 10 mM) | PanDDA run, TFA/DMSO background map: Hit ([2]; crystal soak 10 mM) | other results
OCC(Cc1ccoc1)Nc1ncnc2[nH]ccc12 (stereo not drawn) [AVI-3705] | 64 | 64 | 1 | – | – | 0.14 | TRUE | –
OCC1CC2(CCOCC2)CN1c1ncnc2[nH]ccc12 (stereo not drawn) [AVI-3707] | – | 39 | 1 | – | 39 | 0.15 | TRUE | –
OCC1CC2(CCCC2)CN1c1ncnc2[nH]ccc12 (stereo not drawn) [AVI-3708] | – | – | 1 | – | – | – | – | Ki [1, 5]: 25 µM; Ligand efficiency (binding enery per heavy atom) [1, 5]: 0.32; IC50 [1, 5]: 27 µM
OCC(COCc1ccccc1)Nc1ncnc2[nH]ccc12 (stereo not drawn) [AVI-3709] | 29 | 29 | 2 | S,R | – | 0.16 | TRUE | –
O=C(O)C(F)(F)F.OC[C@@H]1CC2(CC2)CN1c1ncnc2[nH]ccc12 [AVI-3710] | – | 57 | 1 | S,S | 57 | 0.23 | TRUE | –
OCC(Cc1cccs1)Nc1ncnc2[nH]ccc12 (stereo not drawn) [AVI-3711] | 63 | 63 | 1 | – | – | 0.16 | TRUE | –
OCC1C2CCC(C2)N1c1ncnc2[nH]ccc12 (stereo not drawn) [AVI-3713] | – | – | 1 | SSR | – | – | – | Ki [1, 5]: 25 µM; Ligand efficiency (binding enery per heavy atom) [1, 5]: 0.35; IC50 [1, 5]: 27 µM
OCC(Nc1ncnc2[nH]ccc12)c1ccccc1 (stereo not drawn) [AVI-3715] | 54 | 54 | 1 | – | – | 0.09 | TRUE | –
OCC1COCCN1c1ncnc2[nH]ccc12 (stereo not drawn) [AVI-3717] | – | 62 | 2 | R,S | 62 | – | – | –
CC(C)(C)C1CCC(CO)N(c2ncnc3[nH]ccc23)C1 (stereo not drawn) [AVI-3719] | – | 36 | 1 | – | 36 | – | – | –
OC[C@@H]1C[C@@H]2CCC[C@@H]2N1c1ncnc2[nH]ccc12 [AVI-3720] | – | – | 1 | SSS | – | – | – | Ki [1, 5]: 26 µM; Ligand efficiency (binding enery per heavy atom) [1, 5]: 0.33; IC50 [1, 5]: 28 µM
CN1CCN(c2ncnc3[nH]ccc23)C(CO)C1 (stereo not drawn) [AVI-3721] | – | 11 | 1 | R,R | 11 | – | – | –
CC(C)(C)[C@@H]1CCN(c2ncnc3[nH]ccc23)[C@H](CO)C1 [AVI-3722] | – | 22 | 1 | – | 22 | – | – | –
OC[C@H]1CN2CCC[C@H]2CN1c1ncnc2[nH]ccc12 [AVI-3724] | – | < 10 | – | – | < 10 | – | – | PanDDA run, overall: Hit [2, 6]: TRUE; PanDDA run, overall: Modeling comment [2, 6]: Weak density, not modeled; PanDDA run, DMSO background map: 1-BDC [2, 7]: 0.05; PanDDA run, DMSO background map: Hit [2, 7]: TRUE
CC1(C)CCC(CO)N(c2ncnc3[nH]ccc23)C1 (stereo not drawn) [AVI-3726] | – | 76 | 2 | R,R,S | 76 | – | – | –
OCC1CC2(CCCCC2)CN1c1ncnc2[nH]ccc12 (stereo not drawn) [AVI-3727] | – | 67 | 1 | – | 67 | 0.25 | TRUE | –
